# From US12419873B2, “Use of JAK inhibitors in preparation of drugs for treating JAK kinase-related diseases” (ZHUHAI UNITED LABORATORIES CO., LTD., priority 2020, dated 2025)
# Entries after “also recorded” stand apart in the source; their conditions may differ.
# How the values were obtained:
# JAK2 = JAK2 (Homo sapiens (Human), UniProt O60674); assay: In vitro activity test of JAK2 kinase; conditions: read-out: JAK2 (IC50)
# JAK1 = JAK1 (Homo sapiens (Human), UniProt P23458); assay: In vitro activity test of JAK1 kinase; format: biochemical
# Sequence of JAK1 (P23458 whole entry): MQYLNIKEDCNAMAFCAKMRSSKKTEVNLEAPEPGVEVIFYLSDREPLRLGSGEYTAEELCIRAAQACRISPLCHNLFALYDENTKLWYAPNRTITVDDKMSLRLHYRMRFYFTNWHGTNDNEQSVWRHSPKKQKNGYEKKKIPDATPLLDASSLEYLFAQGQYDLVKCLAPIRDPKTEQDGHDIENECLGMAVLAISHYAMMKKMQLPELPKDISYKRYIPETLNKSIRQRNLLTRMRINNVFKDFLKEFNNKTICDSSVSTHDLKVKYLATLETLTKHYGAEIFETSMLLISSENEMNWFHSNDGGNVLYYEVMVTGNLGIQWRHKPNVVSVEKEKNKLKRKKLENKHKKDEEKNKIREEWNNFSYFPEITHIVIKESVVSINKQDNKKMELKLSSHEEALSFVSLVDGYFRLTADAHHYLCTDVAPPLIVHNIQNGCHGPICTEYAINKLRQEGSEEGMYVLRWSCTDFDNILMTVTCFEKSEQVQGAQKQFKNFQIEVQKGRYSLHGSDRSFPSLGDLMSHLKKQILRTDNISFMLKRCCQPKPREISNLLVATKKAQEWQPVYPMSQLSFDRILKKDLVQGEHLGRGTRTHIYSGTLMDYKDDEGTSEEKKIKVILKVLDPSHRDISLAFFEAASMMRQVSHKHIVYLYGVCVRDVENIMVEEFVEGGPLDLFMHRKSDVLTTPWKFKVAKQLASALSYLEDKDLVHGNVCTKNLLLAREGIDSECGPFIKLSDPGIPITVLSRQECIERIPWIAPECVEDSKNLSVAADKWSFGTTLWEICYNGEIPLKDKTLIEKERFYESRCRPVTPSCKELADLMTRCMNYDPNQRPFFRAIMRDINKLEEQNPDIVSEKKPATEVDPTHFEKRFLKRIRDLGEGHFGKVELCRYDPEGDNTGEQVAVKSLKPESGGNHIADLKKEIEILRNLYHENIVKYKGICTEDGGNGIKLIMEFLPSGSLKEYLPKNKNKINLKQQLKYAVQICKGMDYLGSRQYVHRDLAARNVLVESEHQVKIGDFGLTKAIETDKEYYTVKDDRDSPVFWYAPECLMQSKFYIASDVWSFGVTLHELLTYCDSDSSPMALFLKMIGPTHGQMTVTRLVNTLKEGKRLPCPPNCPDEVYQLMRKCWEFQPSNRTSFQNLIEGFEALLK
# Protocol: (§1) Recombinant human JAK1, JAK2, JAK3, TyK2 protease, main instruments and reagents were provided by Eurofins in the UK
# (§2) All compounds were prepared into a 100% DMSO solution and reached 50 times the final determined concentration. The test compound was diluted by 3 times the concentration gradient, and the final concentration was 10 μM to 0.001 μM, 9 concentrations in total, and the content of DMSO in the detection reaction was 2%. The working stock solution of the compound was added to a determination hole as the first component of the reaction, and then the remaining components were added according to the detailed scheme determination below.
# (§3) Mg/ATP mixture was added to start the reaction. After incubation at room temperature for 40 minutes, 0.5% phosphoric acid was added to stop the reaction.
# TYK2 = TYK2 (Homo sapiens (Human), UniProt P29597); assay: In vitro activity test of TYK2 kinase; format: biochemical
# Sequence of TYK2 (P29597 whole entry): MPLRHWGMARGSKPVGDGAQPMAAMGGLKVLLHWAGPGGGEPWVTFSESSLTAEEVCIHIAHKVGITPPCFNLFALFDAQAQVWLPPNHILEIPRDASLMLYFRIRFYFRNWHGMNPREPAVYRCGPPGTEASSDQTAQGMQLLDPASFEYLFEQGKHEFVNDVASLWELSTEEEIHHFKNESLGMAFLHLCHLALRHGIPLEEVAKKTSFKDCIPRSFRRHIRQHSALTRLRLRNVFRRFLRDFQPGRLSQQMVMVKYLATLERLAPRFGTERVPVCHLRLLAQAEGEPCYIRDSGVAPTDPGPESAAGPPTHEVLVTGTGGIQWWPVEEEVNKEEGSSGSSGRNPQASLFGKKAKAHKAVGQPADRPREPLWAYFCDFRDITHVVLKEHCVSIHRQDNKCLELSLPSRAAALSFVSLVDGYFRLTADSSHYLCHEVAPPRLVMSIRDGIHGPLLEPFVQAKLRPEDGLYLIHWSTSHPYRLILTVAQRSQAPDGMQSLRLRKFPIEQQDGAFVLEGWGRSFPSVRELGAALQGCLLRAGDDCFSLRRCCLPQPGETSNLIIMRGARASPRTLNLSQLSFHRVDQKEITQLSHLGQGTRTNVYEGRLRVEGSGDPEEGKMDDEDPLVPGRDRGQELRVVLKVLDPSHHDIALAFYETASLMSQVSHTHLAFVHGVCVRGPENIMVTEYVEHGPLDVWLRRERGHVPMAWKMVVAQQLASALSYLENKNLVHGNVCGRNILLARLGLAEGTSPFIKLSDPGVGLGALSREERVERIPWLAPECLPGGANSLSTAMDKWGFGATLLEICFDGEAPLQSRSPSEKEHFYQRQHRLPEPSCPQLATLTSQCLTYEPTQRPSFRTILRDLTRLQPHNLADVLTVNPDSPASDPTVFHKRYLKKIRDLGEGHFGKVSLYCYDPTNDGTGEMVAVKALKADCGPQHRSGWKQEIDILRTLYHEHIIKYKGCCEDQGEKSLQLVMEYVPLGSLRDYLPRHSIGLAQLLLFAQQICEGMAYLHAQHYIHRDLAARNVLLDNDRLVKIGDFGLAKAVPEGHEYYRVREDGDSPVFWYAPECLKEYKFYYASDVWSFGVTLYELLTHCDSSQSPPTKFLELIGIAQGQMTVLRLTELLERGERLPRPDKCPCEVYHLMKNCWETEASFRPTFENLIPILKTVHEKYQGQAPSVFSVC
# Protocol: as §1, §2, §3
# [1] = tested on: DSS induced ulcerative colitis and Crohn's disease in mice; assay: In vivo pharmacodynamic study on DSS induced inflammatory bowel disease (IBD) in mice; set-up: species or system mice (C57BL/6); Colon length: unit not given here
# Description: Inflammatory bowl disease (IBD) is a kind of recurrent disease. It is difficult to cure, has a high recurrence rate, and has a poor prognosis, it has a certain correlation with the incidence of colon cancer. The development of drugs for the treatment of IBD will help alleviate the symptoms of ulcerative colitis and Crohn's disease and improve the quality of life of patients. The mouse inflammation model induced by dextran sulfate sodium (DSS) is similar to the human disease ulcerative colitis and Crohn's disease. It is a common classical model for preclinical evaluation of drug efficacy.
# Preparation method of DSS: 20 g DSS was weighed, 1000 mL drinking water was added to form 2% DSS solution, and stored in a 4° C. refrigerator. It is effective within one month.
# Preparation method of a solvent: Vehicle solution is an aqueous solution containing 0.5% methylcellulose and 0.5% Tween 80. Firstly, 5 g of methylcellulose was dissolved in 990 mL of pure water, then 5 g of Tween 80 was added in small amount for many times, mixed evenly and stored at room temperature.
# Preparation method of compounds: the compound was weighed, an aqueous solution with a mass ratio of 0.5% methylcellulose+0.5% Tween 80 was added, and it was processed by ultrasonic until it was dissolved.
# The adaptation period of the animals was 3 days. After adaptation, the animals were weighed every day. The blank group was given drinking water, and the other groups were given drinking water containing 2% DSS. The water volume was 5 mL/animal/day. The animals in the test drug group were administrated by gavage once a day. The blank group and […] group were given the same volume of vehicle, with the administration volume of 10 mL/kg. Every other day, the fecal viscosity was evaluated, feces were collected for fecal occult blood detection, and the disease activity index (DAI) score was calculated. DSS consumption was detected every day. Fresh DSS solution was replaced every two days. The dosing cycle was continuous intragastric administration for 7 days, followed by 4 days of drug withdrawal, followed by 7 days of continuous intragastric administration. Normal drinking water was changed when intragastric administration was stopped.
# DAI is the sum of the scores of body weight, fecal viscosity and fecal occult blood. Among them, the semi quantitative detection method of piramine cave was adopted for detecting fecal occult blood, including adding piramine cave to the sample first, then adding hydrogen peroxide and ethanol solution, and reading and scoring the color within 2 min. Immediately generating purple blue is marked as 4+, generating the purple blue within 10 s is marked as 3+, generating purple red within 1 min is marked as 2+, and gradually generating the purple red within 1-2 min is marked as 1+, and generating no color reaction of purple orchid or purple red within the reading time is recorded as negative (−). After the experiment, the colon and spleen were taken, and the length of colon and the weight of spleen were measured. The spleen index was the ratio of spleen weight to body weight.
# JAK3 = JAK3 (Homo sapiens (Human), UniProt P52333); assay: In vitro activity test of JAK3 kinase; format: biochemical
# Sequence of JAK3 (P52333 whole entry): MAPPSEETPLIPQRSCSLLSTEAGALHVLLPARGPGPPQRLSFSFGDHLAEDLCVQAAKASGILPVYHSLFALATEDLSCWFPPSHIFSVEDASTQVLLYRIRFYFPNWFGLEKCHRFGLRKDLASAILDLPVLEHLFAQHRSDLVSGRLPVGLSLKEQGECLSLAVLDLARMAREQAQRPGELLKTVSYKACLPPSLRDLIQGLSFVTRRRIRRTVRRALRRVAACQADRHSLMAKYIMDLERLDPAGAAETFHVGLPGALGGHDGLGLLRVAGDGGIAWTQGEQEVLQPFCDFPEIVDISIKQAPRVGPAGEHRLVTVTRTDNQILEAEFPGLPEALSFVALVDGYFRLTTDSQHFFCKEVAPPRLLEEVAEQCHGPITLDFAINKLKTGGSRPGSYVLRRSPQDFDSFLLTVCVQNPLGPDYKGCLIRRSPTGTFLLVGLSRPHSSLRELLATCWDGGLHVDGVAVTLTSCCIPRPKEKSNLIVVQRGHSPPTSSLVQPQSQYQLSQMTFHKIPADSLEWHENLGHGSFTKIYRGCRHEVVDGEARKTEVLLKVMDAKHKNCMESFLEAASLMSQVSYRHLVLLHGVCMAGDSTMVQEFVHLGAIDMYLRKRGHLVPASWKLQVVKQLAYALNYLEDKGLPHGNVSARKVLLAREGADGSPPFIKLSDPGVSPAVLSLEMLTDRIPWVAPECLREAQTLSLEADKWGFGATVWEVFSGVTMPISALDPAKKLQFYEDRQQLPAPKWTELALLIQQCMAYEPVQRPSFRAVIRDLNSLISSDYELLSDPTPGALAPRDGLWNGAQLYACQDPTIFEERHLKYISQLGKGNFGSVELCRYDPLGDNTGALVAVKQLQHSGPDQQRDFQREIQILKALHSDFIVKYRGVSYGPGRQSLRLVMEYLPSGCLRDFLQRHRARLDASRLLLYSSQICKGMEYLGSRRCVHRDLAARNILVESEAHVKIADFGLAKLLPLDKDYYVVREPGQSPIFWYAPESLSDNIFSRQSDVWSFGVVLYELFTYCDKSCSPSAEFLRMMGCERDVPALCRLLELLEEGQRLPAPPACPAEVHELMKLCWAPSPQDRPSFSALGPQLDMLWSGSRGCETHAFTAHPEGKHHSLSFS
# Protocol: as §1, §2, §3
# [2] = tested on: DNCB induced allergic dermatitis in mice; assay: In vivo pharmacodynamic study on DNCB induced allergic dermatitis (AD) in mice
# Protocol: The animal allergic dermatitis model induced by 1-chloro-2,4-dinitrobenzene (DNCB) is basically consistent with the clinical manifestations of AD patients.
# Preparation method of solvent: vehicle solution is 30% PEG-400+70% (5% HP-β-CD), pH 4-5. Firstly, 35 g HP-β-CD was dissolved in 700 mL MilliQ pure water, 300 mL PEG-400 was added and mixed well, the pH was adjusted to 4-5, and stored at room temperature.
# Preparation method of compounds: the compounds were weighed and added to 30% PEG-400+ 70% (5% HP-β-CD) solution (by volume), and ultrasonically processed. After the solution was fully mixed, it is load into glass bottles and stored in a 4° C. refrigerator.
# Seventy male Balb/c mice were weighed and randomly divided into 7 groups with 10 mice in each group.
# The animal adaptation period was 3 days. It was adapted to shaving on the back. After 2 days, it was sensitized with the modeling solution, coated with 20 μL 0.5% DNCB solution on the right ear of the mouse, applied with 200 μL 0.5% DNCB solution on the back, once a day for 3 days. The mice were stimulated from day 4, and applied with 10 μL 1% DNCB solution on the right ear of mice, 100 μL 1% DNCB solution on the back of mice, respectively, once every 3 days.
# On days 3, 9, 15, 21, and 27, the severity of specific dermatitis was evaluated by evaluating four clinical inflammatory indicators of atopic dermatitis: Erythema/bleeding, scar/dryness, edema, and infiltration/erosion. Each evaluation index has four grades: 0, none; 1. slight; 2. moderate; 3. obvious; 4. very obvious. Sum the scores represents score of the skin. […] The spleen was taken and the spleen index was calculated: spleen index=spleen weight (mg)/body weight (g).
# The experimental data were expressed by means±standard error (Mean±SEM), and all data were statistically analyzed by one-way ANOVA, with P<0.05 as the statistical difference.
# [3] = day 2, 15 mg/kg p.o. qd, Mean±SEM
# [4] = day 4, 15 mg/kg p.o. qd, Mean±SEM
# [5] = day 6, 15 mg/kg p.o. qd, Mean±SEM
# [6] = day 8, 15 mg/kg p.o. qd, Mean±SEM
# [7] = day 12, 15 mg/kg p.o. qd, Mean±SEM
# [8] = day 14, 15 mg/kg p.o. qd, Mean±SEM
# [9] = day 16, 15 mg/kg p.o. qd, Mean±SEM
# [10] = day 18, 15 mg/kg p.o. qd, Mean±SEM
# [11] = after the experiment, 30 mg/kg p.o. qd, 28 days, Mean±SEM
# Sequence of JAK2 (O60674 whole entry): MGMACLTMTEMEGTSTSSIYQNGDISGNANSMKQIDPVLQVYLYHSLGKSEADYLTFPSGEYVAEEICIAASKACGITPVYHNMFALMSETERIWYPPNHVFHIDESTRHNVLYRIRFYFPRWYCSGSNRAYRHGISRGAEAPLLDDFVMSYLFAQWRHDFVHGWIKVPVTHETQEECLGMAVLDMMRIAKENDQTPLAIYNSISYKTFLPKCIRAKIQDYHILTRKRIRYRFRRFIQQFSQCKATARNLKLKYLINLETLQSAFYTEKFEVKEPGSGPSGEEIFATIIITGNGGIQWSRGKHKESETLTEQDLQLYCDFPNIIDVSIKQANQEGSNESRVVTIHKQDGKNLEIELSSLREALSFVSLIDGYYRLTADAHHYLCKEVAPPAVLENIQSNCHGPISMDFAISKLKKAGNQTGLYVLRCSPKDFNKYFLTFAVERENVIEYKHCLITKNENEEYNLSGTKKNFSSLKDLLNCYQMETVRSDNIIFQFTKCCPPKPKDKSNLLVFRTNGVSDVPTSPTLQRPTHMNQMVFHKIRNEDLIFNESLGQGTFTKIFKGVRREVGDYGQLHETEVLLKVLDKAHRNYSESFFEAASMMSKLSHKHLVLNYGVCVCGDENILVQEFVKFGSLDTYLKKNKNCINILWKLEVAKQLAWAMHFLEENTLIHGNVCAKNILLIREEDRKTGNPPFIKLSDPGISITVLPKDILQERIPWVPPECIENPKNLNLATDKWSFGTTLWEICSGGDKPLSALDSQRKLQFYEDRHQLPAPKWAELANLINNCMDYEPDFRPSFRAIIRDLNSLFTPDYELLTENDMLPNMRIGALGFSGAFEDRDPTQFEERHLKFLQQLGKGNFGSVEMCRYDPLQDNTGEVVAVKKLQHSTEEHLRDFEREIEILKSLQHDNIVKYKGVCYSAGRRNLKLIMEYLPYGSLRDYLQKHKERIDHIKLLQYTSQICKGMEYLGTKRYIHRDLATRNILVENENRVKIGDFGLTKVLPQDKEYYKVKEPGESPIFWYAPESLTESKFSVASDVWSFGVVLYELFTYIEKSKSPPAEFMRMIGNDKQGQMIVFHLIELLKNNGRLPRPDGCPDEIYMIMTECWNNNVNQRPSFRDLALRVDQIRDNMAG
compound,measurement,setting,value
O=C(Nc1nc2cccc(C3CCC4(CC3)CN(C(=O)[C@H]3CC3(F)F)C4)n2n1)[C@@H]1CC1(F)F [Compound 9-3],IC50,JAK2,292 nM
same,IC50,JAK1,7 nM
same,IC50,TYK2,105 nM
same,"Colon shortening caused by DSS, compared with DSS group (in words)",[1]; 15 mg/kg p.o.,can reduce colon shortening
same,Increase of spleen index induced by DSS (in words),[1]; 15 mg/kg p.o.,could reduce the increase of spleen index
same,Colon length,"[1]; after the experiment, 15 mg/kg p.o. qd, Mean±SEM",2.87 ± 0.11
same,Weight of mice,"[1]; day 1, 15 mg/kg p.o. qd, Mean±SEM",22.26 ± 0.29
same,DAI score,[1]; [3],0.40 ± 0.16
same,Weight of mice,[1]; [3],22.48 ± 0.29
same,Weight of mice,"[1]; day 3, 15 mg/kg p.o. qd, Mean±SEM",22.39 ± 0.27
same,DAI score,[1]; [4],1.70 ± 0.54
same,Weight of mice,[1]; [4],22.26 ± 0.31
same,Weight of mice,"[1]; day 5, 15 mg/kg p.o. qd, Mean±SEM",22.18 ± 0.40
same,DAI score,[1]; [5],2.40 ± 0.37
same,Weight of mice,[1]; [5],22.00 ± 0.43
same,Weight of mice,"[1]; day 7, 15 mg/kg p.o. qd, Mean±SEM",21.21 ± 0.53
same,DAI score,[1]; [6],4.70 ± 0.94
same,Weight of mice,[1]; [6],20.72 ± 0.67
same,Weight of mice,"[1]; day 9, 15 mg/kg p.o. qd, Mean±SEM",19.89 ± 0.37
same,Weight of mice,"[1]; day 10, 15 mg/kg p.o. qd, Mean±SEM",18.92 ± 0.47
same,Weight of mice,"[1]; day 11, 15 mg/kg p.o. qd, Mean±SEM",18.60 ± 0.62
same,DAI score,[1]; [7],4.11 ± 0.53
same,Weight of mice,[1]; [7],18.50 ± 0.74
same,Weight of mice,"[1]; day 13, 15 mg/kg p.o. qd, Mean±SEM",19.42 ± 0.78
same,DAI score,[1]; [8],4.88 ± 0.44
same,Weight of mice,[1]; [8],19.26 ± 0.93
same,Weight of mice,"[1]; day 15, 15 mg/kg p.o. qd, Mean±SEM",19.96 ± 0.84
same,DAI score,[1]; [9],3.67 ± 0.86
same,Weight of mice,[1]; [9],20.84 ± 0.46
same,Weight of mice,"[1]; day 17, 15 mg/kg p.o. qd, Mean±SEM",20.42 ± 0.50
same,DAI score,[1]; [10],4.83 ± 0.68
same,Weight of mice,[1]; [10],19.78 ± 0.43
same,Spleen index,"[1]; ratio of spleen weight to body weight, 15 mg/kg p.o. qd, Mean±SEM",4.98 ± 0.40
same,IC50,JAK3,> 10000 nM
same,Effect on the weight of mice (in words),"[2]; 30 mg/kg p.o. qd, 28 days",no significant effect
same,Effect on treating allergic dermatitis (in words),"[2]; 30 mg/kg p.o. qd, DNCB mice",good disease treatment effect; also recorded: significant effect
same,Concentration of IgE in serum after drug intervention (in words),"[2]; 30 mg/kg p.o., vs DNCB group",significantly decreased
same,Spleen index after drug intervention (in words),"[2]; 30 mg/kg p.o., vs DNCB group",significantly decreased
same,Thickness of the right ear after drug intervention (in words),"[2]; 30 mg/kg p.o., vs DNCB group",significantly decreased
same,IgE concentration in serum,[2]; [11],6.39 ± 1.04
same,Thickness of the right ear,[2]; [11],0.252 ± 0.006
same,Weight of mice,"[2]; day 1, 30 mg/kg p.o. qd from day 4, Mean±SEM",19.32 ± 0.46
same,Skin score,"[2]; day 3, 30 mg/kg p.o. qd from day 4, Mean±SEM",0.7 ± 0.5
same,Weight of mice,"[2]; day 4, 30 mg/kg p.o. qd, Mean±SEM",20.02 ± 0.41
same,Weight of mice,"[2]; day 7, 30 mg/kg p.o. qd, Mean±SEM",19.24 ± 0.47
same,Skin score,"[2]; day 9, 30 mg/kg p.o. qd, Mean±SEM",3.4 ± 0.7
same,Weight of mice,"[2]; day 10, 30 mg/kg p.o. qd, Mean±SEM",19.41 ± 0.58
same,Weight of mice,"[2]; day 13, 30 mg/kg p.o. qd, Mean±SEM",20.83 ± 0.42
same,Skin score,"[2]; day 15, 30 mg/kg p.o. qd, Mean±SEM",4.2 ± 0.6
same,Weight of mice,"[2]; day 16, 30 mg/kg p.o. qd, Mean±SEM",21.49 ± 0.45
same,Weight of mice,"[2]; day 19, 30 mg/kg p.o. qd, Mean±SEM",23.36 ± 0.38
same,Skin score,"[2]; day 21, 30 mg/kg p.o. qd, Mean±SEM",5.4 ± 0.9
same,Weight of mice,"[2]; day 22, 30 mg/kg p.o. qd, Mean±SEM",23.67 ± 0.37
same,Weight of mice,"[2]; day 25, 30 mg/kg p.o. qd, Mean±SEM",23.14 ± 0.42
same,Skin score,"[2]; day 27, 30 mg/kg p.o. qd, Mean±SEM",2.2 ± 0.9
same,Skin score compared with DNCB group (in words),"[2]; day 27 of administration, 30 mg/kg p.o.",significant reduction
same,Weight of mice,"[2]; day 28, 30 mg/kg p.o. qd, Mean±SEM",24.15 ± 0.50
same,Spleen index,"[2]; spleen weight (mg)/body weight (g), 30 mg/kg p.o. qd, 28 days, Mean±SEM",4.17 ± 0.65
